Values quoted from earlier work in US20080139483A1, “DRUG COMBINATION FOR HYPERTENSIVE DISORDERS” (priority 2006, published 2008).

Assays:
patients with PAH = conditions: does not appear to be dose related

drug interactions (p450 induction or inhibition) (p450): no p450 induction or inhibition
Compound: COC(c1ccccc1)(c1ccccc1)[C@H](Oc1nc(C)cc(C)n1)C(=O)O [ambrisentan]
potential liver toxicity (patients with PAH): low incidence and severity of potential liver toxicity
